From ChEMBL document CHEMBL5154757, “Phosphodiesters as GPR84 Antagonists for the Treatment of Ulcerative Colitis” (J Med Chem, 2022)
Values belong to the compound of their own block, whether it stands above or below them.

Key:
[1] = biological target: G-protein coupled receptor 84 (Mus musculus) (UniProt Q8CIM5); assay: Antagonist activity at GPR84 expressed in mouse bone marrow cells assessed as reduction in 6-OAU induced migration in neutrophils incubated for 90 mins by flow cytometry; type: functional, cell-based; details: Bone marrow cell, filed as antagonist, dose 0.01-1 µM, DDE = dose-dependent effect
[2] = biological target: G-protein coupled receptor 84 (Mus musculus) (UniProt Q8CIM5); assay: Antagonist activity at GPR84 expressed in mouse bone marrow cells assessed as reduction in 6-OAU/3-OH-C12 induced migration in monocytes incubated for 90 mins by flow cytometry; type: functional, cell-based; details: Bone marrow cell, filed as antagonist, dose 0.01-1 µM, DDE = dose-dependent effect
[3] = biological target: G-protein coupled receptor 84 (Mus musculus) (UniProt Q8CIM5); assay: Antagonist activity at GPR84 expressed in mouse bone marrow cells assessed as reduction in 3-OH-C12 induced migration in neutrophils incubated for 90 mins by flow cytometry; type: functional, cell-based; details: Bone marrow cell, filed as antagonist, dose 0.01-1 µM, DDE = dose-dependent effect
[4] = biological target: G-protein coupled receptor 84 (Mus musculus) (UniProt Q8CIM5); assay: Antagonist activity at GPR84 expressed in mouse bone marrow cells assessed as reduction in 3-OH-C12 induced migration in monocytes incubated for 90 mins by flow cytometry; type: functional, cell-based; details: Bone marrow cell, filed as antagonist, dose 0.01-1 µM, DDE = dose-dependent effect
[5] = biological target: G-protein coupled receptor 84 (Mus musculus, UniProt Q8CIM5); assay: Antagonist activity at mouse GPR84 expressed in HEK293 cells assessed as reduction in 6-OAU induced intracellular calcium response preincubated for 10 mins followed by agonist addition and measured after 1 min by calcium mobilization assay; type: functional, cell-based
[6] = Tmax in CD-1 mouse at 5 mg/kg, po administered as single dose measured upto 24 hrs by LC-MS/MS analysis; type: ADME, organism-based; details: in vivo
[7] = Cmax in CD-1 mouse at 5 mg/kg, po administered as single dose measured upto 24 hrs by LC-MS/MS analysis; type: ADME, organism-based; design: time < 24 hrs, dose 5 mg/kg, route po; details: in vivo
[8] = MRT in CD-1 mouse at 2 mg/kg, iv administered as single dose measured upto 24 hrs by LC-MS/MS analysis; type: ADME, organism-based; details: in vivo
[9] = AUC(0 to infinity) in CD-1 mouse at 5 mg/kg, po administered as single dose measured upto 24 hrs by LC-MS/MS analysis; type: ADME, organism-based; design: time < 24 hrs, dose 5 mg/kg, route po; details: in vivo
[10] = AUC(0 to infinity) in CD-1 mouse at 2 mg/kg, iv administered as single dose measured upto 24 hrs by LC-MS/MS analysis; type: ADME, organism-based; design: time < 24 hrs, dose 2 mg/kg, route iv; details: in vivo
[11] = Half life in CD-1 mouse at 5 mg/kg, po administered as single dose measured upto 24 hrs by LC-MS/MS analysis; type: ADME, organism-based; details: in vivo
[12] = Half life in CD-1 mouse at 2 mg/kg, iv administered as single dose measured upto 24 hrs by LC-MS/MS analysis; type: ADME, organism-based; details: in vivo
[13] = Clearance in CD-1 mouse at 2 mg/kg, iv administered as single dose measured upto 24 hrs by LC-MS/MS analysis; type: ADME, organism-based; details: in vivo
[14] = MRT in CD-1 mouse at 5 mg/kg, po administered as single dose measured upto 24 hrs by LC-MS/MS analysis; type: ADME, organism-based; details: in vivo
[15] = Oral bioavailability in CD-1 mouse at 5 mg/kg administered as single dose measured upto 24 hrs by LC-MS/MS analysis; type: ADME, organism-based; details: in vivo
[16] = Volume of distribution at steady state in CD-1 mouse at 2 mg/kg, iv administered as single dose measured upto 24 hrs by LC-MS/MS analysis; type: ADME, organism-based; details: in vivo, read-out: Vdss
[17] = biological target: G-protein coupled receptor 84 (Homo sapiens, UniProt Q9NQS5); assay: Antagonist activity at human GPR84 expressed in HEK293 cells co-expressing Galpha16 assessed as reduction in 6-OAU induced intracellular calcium response preincubated for 10 mins followed by agonist addition and measured after 1 min by calcium mobilization assay; type: functional, cell-based
[18] = Drug distribution in DSS-induced ulcerative colitis mouse jejunum at 5 mg/kg, po administered as single dose measured upto 8 hrs by LC-MS/MS analysis; type: ADME, organism-based; details: in vivo
[19] = Drug distribution in DSS-induced ulcerative colitis mouse colon at 5 mg/kg, po administered as single dose measured upto 8 hrs by LC-MS/MS analysis; type: ADME, organism-based; details: in vivo
Mus musculus [20] = assay: Anti-colitis activity against DSS-induced ulcerative colitis mouse model assessed as attenuation of weight loss administered orally once daily for 7 consecutive days; type: functional, organism-based; details: dose 25-100 mg/kg, route po, DDE = dose-dependent effect
Mus musculus [21] = assay: Anti-colitis activity against DSS-induced ulcerative colitis mouse model assessed as attenuation of stool thinning administered orally once daily for 7 consecutive days; type: functional, organism-based; details: dose 25-100 mg/kg, route po, DDE = dose-dependent effect
Mus musculus [22] = assay: Anti-colitis activity against DSS-induced ulcerative colitis mouse model assessed as attenuation of rectal bleeding administered orally once daily for 7 consecutive days; type: functional, organism-based; details: dose 25-100 mg/kg, route po, DDE = dose-dependent effect
Mus musculus [23] = assay: Anti-colitis activity against DSS-induced ulcerative colitis mouse model assessed as reduction in DAI score administered orally once daily for 7 consecutive days; type: functional, organism-based; details: dose 25-100 mg/kg, route po, DDE = dose-dependent effect
HEK293 = assay: Cytotoxicity against HEK293 cells assessed as inhibition of cell growth upto 100 uM measured after 24 hrs by ATPlite assay; type: toxicity, cell-based; details: human, hek293, 24 h
[24] = Drug distribution in C57 mouse liver at 3 mg/kg, iv administered as single dose measured upto 8 hrs by LC-MS/MS analysis; type: ADME, organism-based; details: in vivo
[25] = Drug distribution in C57 mouse duodenum at 5 mg/kg, po administered as single dose measured upto 8 hrs by LC-MS/MS analysis; type: ADME, organism-based; details: in vivo
[26] = Drug distribution in C57 mouse jejunum at 5 mg/kg, po administered as single dose measured upto 8 hrs by LC-MS/MS analysis; type: ADME, organism-based; details: in vivo
[27] = Drug distribution in C57 mouse ileum at 5 mg/kg, po administered as single dose measured upto 8 hrs by LC-MS/MS analysis; type: ADME, organism-based; details: in vivo
[28] = Drug distribution in C57 mouse colon at 5 mg/kg, po administered as single dose measured upto 8 hrs by LC-MS/MS analysis; type: ADME, organism-based; details: in vivo
Bone marrow cell = assay: Cytotoxicity against bone marrow cells (unknown origin) assessed as inhibition of cell growth upto 10 uM measured after 1.5 to 2 hrs by ATPlite assay; type: toxicity, cell-based; details: time 1.5-2 hrs
[29] = Mutagenecity in Salmonella typhimurium TA98 in presence of S9 fraction at 1000 ug by Ames test; type: toxicity, subcellular, Salmonella enterica subsp. enterica serovar Typhimurium; details: dose 1000 µg
[30] = Mutagenecity in Salmonella typhimurium TA98 in absence of S9 fraction at 1000 ug by Ames test; type: toxicity, Salmonella enterica subsp. enterica serovar Typhimurium; details: in vivo; dose 1000 µg
[31] = Mutagenecity in Salmonella typhimurium TA100 in presence of S9 fraction at 1000 ug by Ames test; type: toxicity, subcellular, Salmonella enterica subsp. enterica serovar Typhimurium; details: dose 1000 µg
[32] = Mutagenecity in Salmonella typhimurium TA100 in absence of S9 fraction at 1000 ug by Ames test; type: toxicity, Salmonella enterica subsp. enterica serovar Typhimurium; details: in vivo; dose 1000 µg

Sequence of G-protein coupled receptor 84 (Homo sapiens, UniProt Q9NQS5) (Q9NQS5 whole entry): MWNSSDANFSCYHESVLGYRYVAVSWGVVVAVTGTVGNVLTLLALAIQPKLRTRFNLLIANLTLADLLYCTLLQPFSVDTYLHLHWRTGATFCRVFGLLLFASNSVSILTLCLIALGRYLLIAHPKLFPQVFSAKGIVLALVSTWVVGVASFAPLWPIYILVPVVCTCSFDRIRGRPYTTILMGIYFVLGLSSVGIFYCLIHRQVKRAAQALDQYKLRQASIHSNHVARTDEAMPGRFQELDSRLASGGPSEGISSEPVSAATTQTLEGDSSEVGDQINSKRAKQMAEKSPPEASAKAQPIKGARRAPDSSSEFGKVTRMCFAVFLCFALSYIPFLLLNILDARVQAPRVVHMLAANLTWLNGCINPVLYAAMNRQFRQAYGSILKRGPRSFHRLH
Sequence of G-protein coupled receptor 84 (Mus musculus) (Q8CIM5 whole entry): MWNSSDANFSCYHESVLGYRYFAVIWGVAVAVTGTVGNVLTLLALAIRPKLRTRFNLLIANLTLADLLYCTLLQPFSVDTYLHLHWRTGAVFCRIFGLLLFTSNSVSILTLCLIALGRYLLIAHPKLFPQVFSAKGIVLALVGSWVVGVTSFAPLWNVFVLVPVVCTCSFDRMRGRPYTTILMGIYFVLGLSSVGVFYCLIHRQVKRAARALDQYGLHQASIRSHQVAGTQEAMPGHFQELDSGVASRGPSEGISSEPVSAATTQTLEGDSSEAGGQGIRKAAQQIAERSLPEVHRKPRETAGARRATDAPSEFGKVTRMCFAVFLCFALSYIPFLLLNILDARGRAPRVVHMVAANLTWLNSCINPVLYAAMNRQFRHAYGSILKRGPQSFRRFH
Sequence of G-protein coupled receptor 84 (Mus musculus, UniProt Q8CIM5) (Q8CIM5 whole entry): as above

Activity [1]: Dde
Activity [2]: Dde
Activity [3]: Dde
Activity [4]: Dde
SMILES: O=c1nc(OC[C@@H]2COCCO2)cc2n1CCc1cc(C#CC3CC3)ccc1-2

IC50 [5]: 0.454 µM
Tmax [6]: 1.67 h
Cmax [7]: 0.192 µg/mL
MRT [8]: 0.932 h
AUC(0-inf) [9]: 0.562 µg·h/mL
AUC(0-inf) [10]: 1.42 µg·h/mL
half-life [11]: 1.62 h
half-life [12]: 1.14 h
clearance [13]: 1.42 L/h/kg
MRT [14]: 4.05 h
bioavailability [15]: 15.7%
Vd [16]: 1.31 L/kg
SMILES: O=P([O-])(OC1=Cc2ccccc2Sc2ccccc21)OC1=Cc2ccccc2Sc2ccccc21.[Na+]

SMILES: COP(=O)(OC1=Cc2ccccc2Sc2ccccc21)OC1=Cc2ccccc2Sc2ccccc21
IC50 [17]: > 100 µM

Tmax [6]: 0.42 h
Cmax [7]: 0.0743 µg/mL
MRT [8]: 1.89 h
AUC(0-inf) [9]: 0.178 µg·h/mL
AUC(0-inf) [10]: 7.76 µg·h/mL
half-life [11]: 1.91 h
half-life [12]: 5.75 h
clearance [13]: 0.26 L/h/kg
MRT [14]: 2.21 h
bioavailability [15]: 0.91%
Vd [16]: 0.5 L/kg
SMILES: COc1cccc2c1Sc1cccc(F)c1C=C2OP(=O)([O-])OC1=Cc2c(F)cccc2Sc2c(OC)cccc21.[Na+]

SMILES: O=P(O)(Oc1ccccc1)Oc1ccccc1
IC50 [17]: > 100 µM

IC50 [17]: 1.93 µM
SMILES: O=P(O)(CC1=Cc2ccccc2Sc2ccccc21)CC1=Cc2ccccc2Sc2ccccc21

IC50 [5]: 0.273 µM
Activity [1]: Dde
Activity [2]: Dde
Tmax [6]: 2.67 h
Cmax [7]: 0.0818 µg/mL
MRT [8]: 2.26 h
AUC(0-inf) [9]: 0.517 µg·h/mL
AUC(0-inf) [10]: 1.71 µg·h/mL
half-life [11]: 4.39 h
half-life [12]: 5.12 h
clearance [13]: 1.22 L/h/kg
MRT [14]: 7.09 h
bioavailability [15]: 11.9%
Vd [16]: 2.98 L/kg
Activity [3]: Dde
Activity [4]: Dde
Drug uptake [24]: Active
Drug uptake [25]: Active
Drug uptake [26]: Active
Drug uptake [27]: Active
Drug uptake [28]: Active
SMILES: O=P([O-])(OC1=Cc2c(Cl)cccc2Sc2ccccc21)OC1=Cc2c(Cl)cccc2Sc2ccccc21.[Na+]
Drug uptake [18]: Active
Drug uptake [19]: Active
Activity (Mus musculus [20]): Dde
Activity (Mus musculus [21]): Dde
Activity (Mus musculus [22]): Dde
Activity (Mus musculus [23]): Dde
Activity (HEK293): Non-Toxic
Activity (Bone marrow cell): Non-Toxic
Activity [29]: Non-Toxic
Activity [30]: Non-Toxic
Activity [31]: Non-Toxic
Activity [32]: Non-Toxic

IC50 [17]: 0.716 µM
SMILES: O=c1nc(OCC2COCCO2)cc2n1CCc1cc(OCc3ccccn3)ccc1-2 (stereo unspecified)

Tmax [6]: 1 h
Cmax [7]: 0.0436 µg/mL
MRT [8]: 1.82 h
AUC(0-inf) [9]: 0.236 µg·h/mL
AUC(0-inf) [10]: 4.64 µg·h/mL
half-life [11]: 4.99 h
half-life [12]: 5.59 h
clearance [13]: 0.45 L/h/kg
MRT [14]: 7.41 h
bioavailability [15]: 2.3%
Vd [16]: 0.8 L/kg
SMILES: COc1cccc2c1Sc1ccccc1C=C2OP(=O)([O-])OC1=Cc2ccccc2Sc2c(OC)cccc21.[Na+]

IC50 [17]: > 100 µM
SMILES: O=P(O)(O)OC1=Cc2ccccc2Sc2ccccc21
